# Reference: patent EP4691462A1, “SILYBIN-CONTAINING COMPOSITION” (Tianjin Tasly Sants Pharmaceutical Co., Ltd., priority 2023, dated 2024)
# Tested on: Col1a1-Luci-reporter luciferase in LX-2 cells
# Assay: HSCs activation model based on Col1a1-Luci-reporter luciferase in transfected LX-2 cells (Duo-Lite luciferase assay; CI by CompuSyn)
# Type: cell-based, human
# Settings: for CI: named drug combined with silybin, mixed ratio 1:1, 12 hours, CI<0.90 synergistic, 0.90<CI<1.10 additive
# Method: LX-2 cells were inoculated into 96-well plates and cultured to a suitable density. Then, Lipofectamine 3000 liposome transfection reagent was used to prepare transfection system. Each well was transfected with 0.1 µg plasmid, of which the Empty vector group was transfected with pEZX-FR03-hygro empty plasmid, and the Control group and other administration groups were transfected with pEZX-FR03-hygro-COL1A1-WT plasmid.
# The LX-2 cell line was transfected with plasmid for 6 hours, and then the drug-containing serum-free medium containing 2.5 mM, 5 mM, and 10 mM anti-fibrosis agent Pirfenidone was replaced according to groups for incubation for 12 hours, and then tested by the Duo-LitTM Luciferase Assay System kit.
# The cell culture plate to be tested was taken out into the incubator, and left at room temperature for 30 min to allow the temperature of the culture plate to be balanced to room temperature. Firefly luciferase activity was detected. The original culture medium was discarded, and added with 75 µl PBS, then added with Duo-Lite Luciferase detection reagent with the same volume as PBS, and was mixed evenly. The system was left at room temperature for 10 min to detect firefly luciferase luminescence.
# (§1) The LX-2 cell line was transfected with plasmid for 6 hours, and then the drug-containing serum-free medium containing 10 µM, 20 µM, 50 µM Silybin was replaced according to groups for incubation for 12 hours, and then tested by the Duo-LitTM Luciferase Assay System kit.
# as §1, with “µM silybin, 10 µM drug to be screened,” for “µM,”, “20” for “20 µM, 50”, “silybin, 20 µM drug to be screened at a mixed ratio of 1:1” for “Silybin”
# Cell activation inhibition rate% = (Control Group Firefly- Administration Group Firefly)/ Control Group Firefly ×100%. The CI value was obtained by analysis using micro-use CompuSyn software. […]
Structure (SMILES),CI,further results
COCCOC(=O)C1=C(C)NC(C)=C(C(=O)OC/C=C/c2ccccc2)C1c1cccc([N+](=O)[O-])c1 (stereo not shown) [cilnidipine],0.79,
CCOC(=O)C1=C(COCCN)NC(C)=C(C(=O)OC)C1c1ccccc1Cl (stereo not shown) [amlodipine],0.62,
CCCCC(=O)N(Cc1ccc(-c2ccccc2-c2nnn[nH]2)cc1)[C@H](C(=O)O)C(C)C [valsartan],0.47,
COc1ccccc1OCCNCC(O)COc1cccc2[nH]c3ccccc3c12 (stereo not shown) [carvedilol],0.11,
Cc1ccc(=O)n(-c2ccccc2)c1 [Pirfenidone],,"expression level of luciferase (5 mM and 10 mM, 12 hours, clear dose-dependence): significantly decreased"
CCC(=O)O[C@]1(C(=O)CCl)[C@@H](C)C[C@H]2[C@@H]3CCC4=CC(=O)C=C[C@]4(C)[C@@]3(F)[C@@H](O)C[C@@]21C [clobetasol propionate],0.86,
CCCC1O[C@@H]2C[C@H]3[C@@H]4CCC5=CC(=O)C=C[C@]5(C)[C@H]4[C@@H](O)C[C@]3(C)[C@]2(C(=O)CO)O1 (stereo partly shown) [budesonide],0.91,
COC(=O)C1=C(C)NC(C)=C(C(=O)OCCN2CCN(C(c3ccccc3)c3ccccc3)CC2)C1c1cccc([N+](=O)[O-])c1 (stereo not shown) [manidipine],0.54,
O=C(O)COC(=O)Cc1ccccc1Nc1c(Cl)cccc1Cl [aceclofenac],0.46,
COC(=O)C1=C(C)NC(C)=C(C(=O)OCCN(C)Cc2ccccc2)C1c1cccc([N+](=O)[O-])c1 (stereo not shown) [nicardipine],0.31,
COc1cc(C2Oc3cc([C@H]4Oc5cc(O)cc(O)c5C(=O)[C@@H]4O)ccc3OC2CO)ccc1O (stereo partly shown) [silybin],,"inhibitory effect on activation of stellate cells in vitro (10 µM, 20 µM, 50 µM, 12 hours): no significant inhibitory effect"
OC[C@@H](O)[C@@H](O)[C@H](O)[C@H](O)CO [D-mannitol],0.66,
CCOc1ccccc1OCCN[C@H](C)Cc1ccc(OC)c(S(N)(=O)=O)c1 [tamsulosin],0.50,
